# Source: publication PMC3420011, “Small-Molecule Inhibition of BRDT for Male Contraception” (Cell, 2012)
# Biological target: T1, BRDT (Mus musculus, UniProt Q91Y44)
# T1 construct: mBRDT(1) 23–133, first (N-terminal) bromodomain
# Test: AlphaScreen competition with H4Kac4 peptide (IC50); ITC
# Format: binding
smiles,measurement,value
Cc1sc2c(c1C)C(c1ccc(Cl)cc1)=N[C@@H](CC(=O)OC(C)(C)C)c1nnc(C)n1-2 [(+)-JQ1],IC50,10 nM
